Source: PubChem BioAssay (NCI)
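Following 48 hours of exposure in 96-well plates, responses at five concentrations were used to interpolate endpoints linearly. GI50 marks 50% less growth. TGI denotes the concentration required for complete inhibition of growth.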

Columns and labels:
Assay in all cases: NCI-60 cell line screen, 48 h
786-0 renal = test system: 786-0 renal
A498 renal = test system: A498 renal
A549 NSCLC = test system: A549 NSCLC
ACHN renal = test system: ACHN renal
BT-549 breast = test system: BT-549 breast
CAKI-1 renal = test system: CAKI-1 renal
CCRF-CEM leukemia = test system: CCRF-CEM leukemia
COLO 205 colon = test system: COLO 205 colon
DU-145 prostate = test system: DU-145 prostate
EKVX NSCLC = test system: EKVX NSCLC
HCC-2998 colon = test system: HCC-2998 colon
HCT-116 colon = test system: HCT-116 colon
HCT-15 colon = test system: HCT-15 colon
HL-60(TB) leukemia = test system: HL-60(TB) leukemia
HOP-62 NSCLC = test system: HOP-62 NSCLC
HOP-92 NSCLC = test system: HOP-92 NSCLC
HS 578T breast = test system: HS 578T breast
HT29 colon = test system: HT29 colon
IGROV1 ovarian = test system: IGROV1 ovarian
K-562 leukemia = test system: K-562 leukemia
KM12 colon = test system: KM12 colon
LOX IMVI melanoma = test system: LOX IMVI melanoma
M14 melanoma = test system: M14 melanoma
MALME-3M melanoma = test system: MALME-3M melanoma
MCF7 breast = test system: MCF7 breast
MDA-MB-231 breast = test system: MDA-MB-231 breast
MDA-MB-435 = test system: MDA-MB-435
MDA-MB-468 breast = test system: MDA-MB-468 breast
MOLT-4 leukemia = test system: MOLT-4 leukemia
NCI-H226 lung = test system: NCI-H226 lung
NCI-H23 lung = test system: NCI-H23 lung
NCI-H460 lung = test system: NCI-H460 lung
NCI-H522 lung = test system: NCI-H522 lung
NCI/ADR-RES ovarian = test system: NCI/ADR-RES ovarian
OVCAR-3 ovarian = test system: OVCAR-3 ovarian
OVCAR-4 ovarian = test system: OVCAR-4 ovarian
OVCAR-5 ovarian = test system: OVCAR-5 ovarian
OVCAR-8 ovarian = test system: OVCAR-8 ovarian
PC-3 prostate = test system: PC-3 prostate
RPMI-8226 leukemia = test system: RPMI-8226 leukemia
RXF 393 renal = test system: RXF 393 renal
SF-268 CNS = test system: SF-268 CNS
SF-295 CNS = test system: SF-295 CNS
SF-539 CNS = test system: SF-539 CNS
SK-MEL-2 melanoma = test system: SK-MEL-2 melanoma
SK-MEL-28 melanoma = test system: SK-MEL-28 melanoma
SK-MEL-5 melanoma = test system: SK-MEL-5 melanoma
SK-OV-3 ovarian = test system: SK-OV-3 ovarian
SN12C renal = test system: SN12C renal
SNB-19 CNS = test system: SNB-19 CNS
SNB-75 CNS = test system: SNB-75 CNS
SR leukemia = test system: SR leukemia
SW-620 colon = test system: SW-620 colon
T-47D breast = test system: T-47D breast
TK-10 renal = test system: TK-10 renal
U251 CNS = test system: U251 CNS
UACC-257 melanoma = test system: UACC-257 melanoma
UACC-62 melanoma = test system: UACC-62 melanoma
UO-31 renal = test system: UO-31 renal

`COc1ccc(CN2[C@@H](C(=O)NCc3ccc(C(=O)NO)cc3)Cc3c([nH]c4ccccc34)[C@@H]2C2CC2)cc1` was tested. Which GI50 (786-0 renal) did it give?
Its GI50 is 3.98 µM.

And the TGI (786-0 renal)?
Its TGI is 13 µM.

And the GI50 (A498 renal)?
The GI50 was 2.77 µM.

And the TGI (A498 renal)?
The TGI was 7.99 µM.

What about the GI50 (A549 NSCLC) of the same compound?
Its GI50 is 3.54 µM.

What about the TGI (A549 NSCLC) of the same compound?
Its TGI is 9.02 µM.

And the GI50 (ACHN renal)?
The GI50 was 3.52 µM.

And the TGI (ACHN renal)?
Its TGI is 9.33 µM.

What about the GI50 (BT-549 breast) of the same compound?
The GI50 was 4.99 µM.

What about the TGI (BT-549 breast) of the same compound?
Its TGI is 9.96 µM.

What about the GI50 (CAKI-1 renal) of the same compound?
The GI50 was 2.39 µM.

And the TGI (CAKI-1 renal)?
Its TGI is 6.73 µM.

And the GI50 (CCRF-CEM leukemia)?
Its GI50 is 0.996 µM.

And the TGI (CCRF-CEM leukemia)?
The TGI was > 19.8 µM.

What about the GI50 (COLO 205 colon) of the same compound?
The GI50 was 3.47 µM.

And the TGI (COLO 205 colon)?
Its TGI is 8.03 µM.

What about the GI50 (DU-145 prostate) of the same compound?
Its GI50 is 4.38 µM.

And the TGI (DU-145 prostate)?
Its TGI is > 19.8 µM.

And the GI50 (EKVX NSCLC)?
Its GI50 is 3.2 µM.

What about the TGI (EKVX NSCLC) of the same compound?
Its TGI is 10.9 µM.

What about the GI50 (HCC-2998 colon) of the same compound?
The GI50 was 2.6 µM.

What about the TGI (HCC-2998 colon) of the same compound?
The TGI was 5.59 µM.

And the GI50 (HCT-116 colon)?
The GI50 was 2.08 µM.

What about the TGI (HCT-116 colon) of the same compound?
Its TGI is > 19.8 µM.

What about the GI50 (HCT-15 colon) of the same compound?
The GI50 was 3.75 µM.

And the TGI (HCT-15 colon)?
The TGI was 10.5 µM.

And the GI50 (HL-60(TB) leukemia)?
Its GI50 is 2.73 µM.

What about the TGI (HL-60(TB) leukemia) of the same compound?
The TGI was > 19.8 µM.

What about the GI50 (HOP-62 NSCLC) of the same compound?
Its GI50 is 3.48 µM.

What about the TGI (HOP-62 NSCLC) of the same compound?
The TGI was 8.58 µM.

And the GI50 (HOP-92 NSCLC)?
The GI50 was 2.62 µM.

What about the TGI (HOP-92 NSCLC) of the same compound?
Its TGI is 6.65 µM.

What about the GI50 (HS 578T breast) of the same compound?
The GI50 was 1.85 µM.

And the TGI (HS 578T breast)?
The TGI was 14.4 µM.

What about the GI50 (HT29 colon) of the same compound?
Its GI50 is 4.84 µM.

What about the TGI (HT29 colon) of the same compound?
Its TGI is > 19.8 µM.

And the GI50 (IGROV1 ovarian)?
The GI50 was 2.6 µM.

And the TGI (IGROV1 ovarian)?
The TGI was 5.78 µM.

What about the GI50 (K-562 leukemia) of the same compound?
Its GI50 is 1.67 µM.

And the TGI (K-562 leukemia)?
The TGI was > 19.8 µM.

And the GI50 (KM12 colon)?
The GI50 was 3.51 µM.

And the TGI (KM12 colon)?
The TGI was 16.7 µM.

And the GI50 (LOX IMVI melanoma)?
The GI50 was 2.37 µM.

And the TGI (LOX IMVI melanoma)?
The TGI was 4.81 µM.

What about the GI50 (M14 melanoma) of the same compound?
The GI50 was 4.07 µM.

What about the TGI (M14 melanoma) of the same compound?
Its TGI is > 19.8 µM.

What about the GI50 (MALME-3M melanoma) of the same compound?
Its GI50 is 0.847 µM.

And the TGI (MALME-3M melanoma)?
Its TGI is 4.17 µM.

And the GI50 (MCF7 breast)?
The GI50 was 2.33 µM.

What about the TGI (MCF7 breast) of the same compound?
The TGI was 12 µM.

And the GI50 (MDA-MB-231 breast)?
The GI50 was 2.43 µM.

And the TGI (MDA-MB-231 breast)?
The TGI was 7.52 µM.

And the GI50 (MDA-MB-435)?
The GI50 was 0.638 µM.

And the TGI (MDA-MB-435)?
The TGI was 2.67 µM.

And the GI50 (MDA-MB-468 breast)?
The GI50 was 1 µM.

What about the TGI (MDA-MB-468 breast) of the same compound?
The TGI was 4.34 µM.

What about the GI50 (MOLT-4 leukemia) of the same compound?
Its GI50 is 1.85 µM.

And the TGI (MOLT-4 leukemia)?
The TGI was > 19.8 µM.

What about the GI50 (NCI-H226 lung) of the same compound?
Its GI50 is 3.41 µM.

What about the TGI (NCI-H226 lung) of the same compound?
Its TGI is 10.1 µM.

What about the GI50 (NCI-H23 lung) of the same compound?
The GI50 was 2.75 µM.

What about the TGI (NCI-H23 lung) of the same compound?
The TGI was 5.77 µM.

And the GI50 (NCI-H460 lung)?
The GI50 was 3.14 µM.

And the TGI (NCI-H460 lung)?
The TGI was 9.21 µM.

And the GI50 (NCI-H522 lung)?
The GI50 was 0.964 µM.

What about the TGI (NCI-H522 lung) of the same compound?
The TGI was 5.06 µM.

What about the GI50 (NCI/ADR-RES ovarian) of the same compound?
The GI50 was 4.05 µM.

And the TGI (NCI/ADR-RES ovarian)?
Its TGI is 13.8 µM.

What about the GI50 (OVCAR-3 ovarian) of the same compound?
The GI50 was 3.41 µM.

And the TGI (OVCAR-3 ovarian)?
Its TGI is 14.7 µM.

And the GI50 (OVCAR-4 ovarian)?
The GI50 was 4.74 µM.

And the TGI (OVCAR-4 ovarian)?
Its TGI is > 19.8 µM.

And the GI50 (OVCAR-5 ovarian)?
Its GI50 is 1.87 µM.

And the TGI (OVCAR-5 ovarian)?
The TGI was 6.05 µM.

What about the GI50 (OVCAR-8 ovarian) of the same compound?
The GI50 was 2.56 µM.

And the TGI (OVCAR-8 ovarian)?
The TGI was 9.71 µM.

And the GI50 (PC-3 prostate)?
Its GI50 is 3.12 µM.

What about the TGI (PC-3 prostate) of the same compound?
Its TGI is > 19.8 µM.

And the GI50 (RPMI-8226 leukemia)?
The GI50 was 2.92 µM.

And the TGI (RPMI-8226 leukemia)?
The TGI was > 19.8 µM.

And the GI50 (RXF 393 renal)?
Its GI50 is 0.797 µM.

And the TGI (RXF 393 renal)?
Its TGI is 4.09 µM.

What about the GI50 (SF-268 CNS) of the same compound?
Its GI50 is 4.4 µM.

What about the TGI (SF-268 CNS) of the same compound?
Its TGI is 13 µM.

And the GI50 (SF-295 CNS)?
The GI50 was 2.92 µM.

And the TGI (SF-295 CNS)?
The TGI was 6.05 µM.

And the GI50 (SF-539 CNS)?
Its GI50 is 2.48 µM.

What about the TGI (SF-539 CNS) of the same compound?
The TGI was 5.71 µM.

And the GI50 (SK-MEL-2 melanoma)?
The GI50 was 4.11 µM.

What about the TGI (SK-MEL-2 melanoma) of the same compound?
The TGI was 12 µM.

What about the GI50 (SK-MEL-28 melanoma) of the same compound?
The GI50 was 1.98 µM.

What about the TGI (SK-MEL-28 melanoma) of the same compound?
Its TGI is 5.88 µM.

What about the GI50 (SK-MEL-5 melanoma) of the same compound?
The GI50 was 2.6 µM.

And the TGI (SK-MEL-5 melanoma)?
The TGI was 5.25 µM.

And the GI50 (SK-OV-3 ovarian)?
Its GI50 is 2.87 µM.

What about the TGI (SK-OV-3 ovarian) of the same compound?
The TGI was 6.97 µM.

What about the GI50 (SN12C renal) of the same compound?
The GI50 was 3.86 µM.

And the TGI (SN12C renal)?
The TGI was 13.4 µM.

What about the GI50 (SNB-19 CNS) of the same compound?
Its GI50 is 2.89 µM.

And the TGI (SNB-19 CNS)?
Its TGI is 6.8 µM.

And the GI50 (SNB-75 CNS)?
The GI50 was 1.13 µM.

And the TGI (SNB-75 CNS)?
The TGI was 5.68 µM.

What about the GI50 (SR leukemia) of the same compound?
The GI50 was > 19.8 µM.

What about the TGI (SR leukemia) of the same compound?
The TGI was > 19.8 µM.

What about the GI50 (SW-620 colon) of the same compound?
The GI50 was 2.26 µM.

What about the TGI (SW-620 colon) of the same compound?
Its TGI is 8.03 µM.

And the GI50 (T-47D breast)?
Its GI50 is 3.82 µM.

And the TGI (T-47D breast)?
The TGI was 12.6 µM.

What about the GI50 (TK-10 renal) of the same compound?
The GI50 was 3.17 µM.

What about the TGI (TK-10 renal) of the same compound?
Its TGI is 10.1 µM.

What about the GI50 (U251 CNS) of the same compound?
Its GI50 is 2.67 µM.

And the TGI (U251 CNS)?
The TGI was 6.78 µM.

What about the GI50 (UACC-257 melanoma) of the same compound?
The GI50 was 2.39 µM.

And the TGI (UACC-257 melanoma)?
The TGI was 9.74 µM.

And the GI50 (UACC-62 melanoma)?
The GI50 was 1.55 µM.

And the TGI (UACC-62 melanoma)?
Its TGI is 4.6 µM.

What about the GI50 (UO-31 renal) of the same compound?
The GI50 was 3 µM.

And the TGI (UO-31 renal)?
The TGI was 5.72 µM.
